# From article PMC4117522, “Proteasome Inhibitors Alter Levels of Intracellular Peptides in HEK293T and SH-SY5Y Cells” (PLoS ONE, 2014)
# Several values for one entry are separate records, joined by “and”; a condition that tells them apart may be missing. Identical values can stand only once.
# Test system: HEK293T cells
# Test: Quantitative peptidomics (TMAB isotopic labels, LC-MS/MS) of inhibitor-treated HEK293T cells
# Type: cell-based, human
# Description: HEK293T and SH-SY5Y cells were grown to 80–90% confluence in DMEM and RPMI supplemented with 10% fetal bovine serum and penicillin/streptomycin. A single plate of cells (150 mm×25 mm) was used for each group. At the start of the experiment, media were removed from the plates and cells were washed with DPBS (138 mM NaCl, 8.06 mM Na2HPO4, 2.67 mM KCl, 1.47 mM KH2PO4, 0.9 mM CaCl2 and 0.49 mM MgCl2). This was followed by addition of serum-free media containing the proteasome or aminopeptidase inhibitors, or 0.05% DMSO as a control for the inhibitors that were soluble in DMSO. Each experiment consisted of two control groups and two or three replicate groups of cells treated with one of the inhibitors. The cells were incubated at 37°C for 20 minutes, following which media containing the inhibitor was removed, cells were washed with DPBS, detached from the plate by scraping into DPBS (without trypsin), and centrifuged at 800×g for 5 min. The wash buffer was supplemented with the appropriate inhibitor at the same concentration as used for the treatment, thereby ensuring that the changes induced in peptide levels were not reversed during harvesting of cells due to possible dissociation of the reversible inhibitors. The wash time (including centrifugation) was 15 minutes, for a total treatment time of 35 minutes. After centrifugation, the cell pellet was resuspended in 1 ml of 80°C water and incubated in an 80°C water bath for 20 minutes to inactivate proteases. The mixture was again centrifuged (13,000×g, 30 min, 4°C) and was stored at −80°C overnight. For peptide extraction, the samples were thawed and centrifuged again. The lysate was subsequently cooled on ice and acidified with HCl to a final concentration of 10 mM. After 15 min incubation on ice, the lysate was centrifuged at 13,000×g for 30 min at 4°C. To the supernatant, 250 µL of dibasic sodium phosphate (0.4 M, pH 9.5) was added and the mixture was stored at −80°C until labeling.
# The labeling protocol has been earlier described in detail. Each group within an experiment (control/treated) was labeled with a different isotopic tag. The TMAB-NHS labels were dissolved in DMSO to a concentration of 400 µg/µL and 15 mg of label was used per 150 mm plate of cells. […] At the beginning, the pH of the peptide extract was adjusted to 9.5 with 1 M NaOH. Labeling was performed over 8 rounds; 4.69 µL of the label was added to the extract every 20 min. The pH was measured between each round and if necessary, brought back to 9.5 for the first five rounds. For rounds 6–8, the pH was not adjusted after the addition of the TMAB-NHS reagent. After the final round of label addition, the pH was adjusted to 9.5 again and the extracts were incubated at room temperature for 90 min. Thereafter, 30 µL of 2.5 M glycine was added to quench any unreacted label. Following 40 min incubation at room temperature, the labeled extracts for a single experiment were pooled and filtered through Amicon Ultracel-10 K units. It is important to ensure that only N-terminal amines and lysine side-chain amines of peptides are TMAB-labeled and not tyrosines. To hydrolyze any labeled tyrosine, 30 µL of a 2 M solution of hydroxylamine hydrochloride (pH 3.7) was added over three rounds to the pooled and filtered sample. The pH was measured after the addition of hydroxylamine and adjusted to 9.0 with 1 M NaOH. The samples were desalted through PepClean C-18 spin columns (Thermo Scientific, Rockford, IL, USA) by following manufacturer’s instructions. Peptides were eluted using 160 µL of 0.5% TFA and 70% acetonitrile, frozen at −80°C and then lyophilized in a vacuum centrifuge and stored at −80°C until analysis by mass spectrometry.
# The LC-MS/MS experiments were performed on a Synapt G2 mass spectrometer coupled to a NanoAcquity capillary liquid chromatography system (Waters Co., Milford, MA, USA).
smiles,measurement,setting,value
"CN1C/C(=C/c2ccc(B(O)O)cc2)C(=O)/C(=C\c2ccc(B(O)O)cc2)C1 [AM114, reference compound]",Relative Levels of peptide ADKVPKTAENFRAL (PPIA),"1 uM, 35', HEK",1.29 and 0.68 and 0.72
same,Relative Levels of peptide AGAAVDELGKVLTPTQV (PEBP1),"1 uM, 35', HEK",1.53 and 0.85
same,Relative Levels of peptide AKADGIVSKNF (RPS21),"1 uM, 35', HEK",0.95 and 0.82 and 0.98
same,Relative Levels of peptide APIKVGDAIPAVEVF (PRDX5),"1 uM, 35', HEK",1.44 and 0.88
same,Relative Levels of peptide APPTAYIDFARQK (TPI1),"1 uM, 35', HEK",1.67 and 1.17
same,Relative Levels of peptide ASQPDVDGFLVGGASLKPEFVDIINAKQ (TPI1),"1 uM, 35', HEK",0.84 and 1.26 and 1.47
same,Relative Levels of peptide AVDGEPLGRVSF (PPIA),"1 uM, 35', HEK",1.20 and 0.93 and 0.87
same,Relative Levels of peptide Ac-AAPVDLELKKAFTEL (PFDN1),"1 uM, 35', HEK",1.09 and 0.91 and 0.97
same,Relative Levels of peptide Ac-AEEGIAAGGVMDVNTALQEVLKT (RPS12),"1 uM, 35', HEK",0.90 and 1.10
same,Relative Levels of peptide Ac-ANLERTFIAIKPDGV (NME2),"1 uM, 35', HEK",1.00 and 1.33
same,Relative Levels of peptide Ac-ASKRALVIL (PARK7),"1 uM, 35', HEK",1.00
same,Relative Levels of peptide Ac-ASKRALVILA (PARK7),"1 uM, 35', HEK",0.86 and 1.00
same,Relative Levels of peptide Ac-MDTSRVQPIKL (RPS28),"1 uM, 35', HEK",0.94 and 1.00
same,Relative Levels of peptide Ac-MDTSRVQPIKLAR (RPS28),"1 uM, 35', HEK",1.18 and 1.12 and 1.00
same,Relative Levels of peptide Ac-MDTSRVQPIKLARVTKV (RPS28),"1 uM, 35', HEK",1.29 and 1.14
same,Relative Levels of peptide Ac-SSEEGKLFVGGLNF (RBM3),"1 uM, 35', HEK",0.90 and 1.03
same,Relative Levels of peptide Ac-SYGRPPPDVEGMTSLKVDNL (SRSF2),"1 uM, 35', HEK",0.91 and 1.06 and 1.09
same,Relative Levels of peptide Ac-[…] (COX6B1),"1 uM, 35', HEK",1.03 and 0.97
same,Relative Levels of peptide GESDDSILRLAKADGIVSKNF (RPS21),"1 uM, 35', HEK",1.09 and 0.90 and 0.85
same,Relative Levels of peptide GFGDLKSPAGLQVL (EEF1B2),"1 uM, 35', HEK",1.74 and 1.18
same,Relative Levels of peptide GISTPEELGLDKV (COX5A),"1 uM, 35', HEK",1.60 and 1.00
same,Relative Levels of peptide KHTGPGILSM (PPIA),"1 uM, 35', HEK",1.13 and 1.00 and 0.92
same,Relative Levels of peptide PGIVELPTLEEL (NDUFA8),"1 uM, 35', HEK",1.07 and 0.80 and 0.67
same,Relative Levels of peptide SLGELIGTLNA (TPI1),"1 uM, 35', HEK",1.06 and 0.59 and 0.88
same,Relative Levels of peptide VNPTVFFDI (PPIA),"1 uM, 35', HEK",1.20 and 0.67 and 0.80
same,change in levels of intracellular peptides (peptidome),"HEK293T cells, 35 min, 2.5 µM MG132, 1 µM other inhibitors",did not produce a substantial change in levels of peptides
